{"source": "paper PMC5560554", "about": "“Targeting of CDK9 with indirubin 3’-monoxime safely and durably reduces HIV viremia in chronically infected humanized mice” (PLoS ONE, 2017)", "key": {"[1]": {"experiment": "Toxicity study in BALB/c mice (daily i.p. 14 days; blood counts and chemistry profiles)", "type": "in vivo", "conditions": "daily i.p. doses of up to 20 mg/kg for 14 days", "procedure": "IM (Cayman Chemicals, Ann Arbor, MI) was dissolved in 10% Cremophor EL (Sigma, St. Louis, MO). Adult, female BALB/c mice were treated with IM (2.5, 5, and 20 mg/kg; n = 5 per dose) or its vehicle (10% Cremophor EL; n = 5) daily, via intraperitoneal (i.p.) injections, for 14 days. We used mice from a single sex to reduce potential variability of the data, although gender is not expected to have an effect on the toxicity of IM. On day 14, animals were anesthesized with ketamine-xylazine (100-150mg/kg Ketamine + 10-16mg/kg Xylazine) and, after confirming (via toe pinch) that a deep surgical plane of anesthesia had been reached, blood was collected by cardiac puncture. Blood samples were submitted for measurements of blood chemistry profiles and of blood counts.\nThere is currently limited information on IM toxicity. […] To better evaluate the toxicity of IM we conducted toxicity studies following standard protocols. We used BALB/c mice because, unlike NSG mice, are fully immunocompetent and thus more suitable for assessing hematological toxicities. BALB/c mice were treated with IM (2.5, 5 and 20 mg/kg; n = 5 per dose) or its vehicle (n = 5) daily, via i.p. injections, for 14 days. […] Mice were monitored daily for morbidity and mortality. […] The other 19 mice remained healthy and had no evidence of morbidity. […] Creatinine levels below reference ranges may be due to sample hemolysis. […]"}, "HIV BaL": {"test_system": "HIV BaL", "experiment": "Antiviral activity of IM during chronic HIV infection in HSC-NSG mice", "type": "in vivo", "text": "NSG mice were humanized at the age of 2–3 days, following whole body irradiation ([…]) and hepatic injection of 1.2x10^5 human cord blood-derived CD34+ cells (Lonza, Walkersville, MD). At week 12, mice were checked for human cell reconstitution by double staining with FITC-conjugated antihuman CD45 antibody (BD Pharmingen) and APC-conjugated antimouse CD45 antibody (BD Pharmingen). Mice were considered successfully transplanted if they had ≥ 5% of human CD45+ cells in peripheral blood. Successfully transplanted mice were infected, via i.p. injection, with 15,000 TCID50 units of the CCR5-tropic HIV reference strain BaL.\nPlasma HIV RNA levels were quantified by an in-house real-time RT PCR using HIV Gag primers SK38/SK39 and SYBR green dyes, as in our previous studies. The assay has a sensitivity of 150 copies HIV RNA/40μL plasma. Percentages of human CD4+ and CD8+ T cells were determined by flow cytometry analysis using fluorochrome labeled antibodies against human CD4 (clone SK3), CD8 (SK1), CD3 (clone SK7), and CD45 (clone 2D1) (BD Biosciences). Data were acquired in a BD FACSCalibur flow cytometer and analyzed using FLowJo software (v. 9.7.7). CD4/CD8 ratios were calculated and plotted using GraphPad Prism 5.0 software.\nWe next evaluated the antiviral activity of IM in HSC-NSG mice chronically infected with HIV. For this, 12-week old HSC-NSG mice were infected with HIV BaL. Five weeks after infection, animals initiated daily i.p. treatment with IM (5 and 20 mg/kg/day) or vehicle control for 15 weeks. Each experimental and control group had 5 mice. Viral replication was monitored by measuring HIV RNA in plasma by RT-PCR. Blood CD4/CD8 ratios were measured by Flow Cytometry. Mice treated with 5 mg/kg dose had modest, but significant, declines in plasma HIV RNA during the 15-week treatment period (Fig 2a). By the end of the study, plasma HIV RNA levels were 2.1 log10 units lower in mice treated with 5 mg/kg IM compared to controls. The CD4/CD8 ratios increased to similar levels in IM (5 mg/kg) and control groups for most of the study duration.\nFig 2 IM reduces HIV viremia in HSC-NSG chronically infected with HIV. Twelve-week old HSC-NSG mice were infected with HIV BaL. Five weeks after infection, treatment was initiated at IM doses of 0 (vehicle alone) and 5 mg/kg/day. Each group had 5 mice. Treatment was continued for 15 weeks. Blood samples collected at the indicated time points were evaluated for plasma HIV RNA levels by quantitative RT-PCR (A), and for CD4/CD8 ratios by Flow Cytometry Analysis (B). At each time point, data were tested for statistical significant differences by Mann-Whitney U tests (GraphPad Prism Software, La Jolla, CA); P < 0.05 was considered significant. Shaded boxes indicate duration of treatment."}, "HIV [2]": {"test_system": "HIV", "parameters": "method as in PMID 16284457", "conditions": "lymphocytes; read-out: EC50 for inhibition of HIV in vitro; cited from earlier work"}, "HIV [3]": {"test_system": "HIV", "parameters": "method as in PMID 24401082", "conditions": "cited from earlier work"}, "CDK9": {"test_system": "CDK9", "parameters": "method as in PMID 16284457", "conditions": "cited from earlier work"}, "primary lymphocytes": {"test_system": "primary lymphocytes", "conditions": "cited from earlier work"}, "[4]": {"conditions": "in vivo; cited from earlier work"}, "[5]": {"conditions": "HIV BaL, 20 mg/kg/day i.p., 5 weeks, limited data (S1 Fig)"}}, "note": "Where “and” joins values, the source holds several entries; their conditions need not be identical. Equal values may be shown once. Entries after “also recorded” stand apart in the source; their conditions may differ.", "data": [{"smiles": "O=C1Nc2ccccc2/C1=C1/Nc2ccccc2/C1=N\\O", "note": "[IM, Indirubin 3’-monoxime]", "values": [{"measurement": "hematologic, renal or liver toxicity", "setting": "[1]", "result": "not associated with hematologic, renal or liver toxicity; also recorded: no hematologic, liver or renal toxicity"}, {"measurement": "human T cells in blood", "setting": "HIV BaL; 20 mg/kg/day i.p., euthanized after 5 weeks of treatment", "result": "progressive losses in human T cells in blood"}, {"measurement": "CD4/CD8 ratios by the end of the study vs control", "setting": "HIV BaL; HIV BaL chronic infection, 5 mg/kg/day i.p. for 15 weeks", "result": "significantly higher"}, {"measurement": "plasma HIV RNA levels lower compared to controls by the end of the study", "setting": "HIV BaL; HIV BaL chronic infection, 5 mg/kg/day i.p. for 15 weeks, 5 mg/kg/day", "result": "2.1 log10 units and ~ 2 log10 units"}, {"measurement": "increases in CD4/CD8 ratios", "setting": "HIV BaL; [5]", "result": "no consistent inhibition of plasma HIV RNA or increases in CD4/CD8 ratios"}, {"measurement": "inhibition of plasma HIV RNA", "setting": "HIV BaL; [5]", "result": "no consistent inhibition of plasma HIV RNA"}, {"measurement": "EC50", "setting": "HIV [2]", "result": 1, "unit": "µM"}, {"measurement": "inhibition of plasma HIV RNA levels", "setting": "HIV [3]; 40 mg/kg, previous study", "result": 2, "unit": "log 10 units"}, {"measurement": "general toxicity", "setting": "HIV [3]; NSG mice, daily doses between 2.5 and 40 mg/kg", "result": "absence of general toxicity"}, {"measurement": "inhibition of CDK9 relative to other CDKs", "setting": "CDK9", "result": "inhibits CDK9 more potently than other CDKs"}, {"measurement": "cytotoxicity", "setting": "primary lymphocytes", "result": "not cytotoxic"}, {"measurement": "penetration in brain", "setting": "[4]", "result": "favorable penetration in brain"}]}]}
